Test results: PubChem BioAssay AID248 (DTP/NCI, 2004)
“And” between values parts separate entries of the source, which are not always exact repeats. Identical values can stand only once. Toxic doses and inconclusive results are not listed. No stated cut-off is given here; in the data, active means T/C of 150% or more; inactive means T/C below 125%. Bridge positions count the residues as written; N and C are the ends. Peptide text beside a SMILES is read from it. I, II: the chains in the order shown.

Test system: L1210 leukemia ip in BDF1 mice, survival T/C
Assay: NCI In Vivo Anticancer Drug Screen. Data for tumor model L1210 Leukemia (intraperitoneal) in B6D2F1 (BDF1) mice
Conditions: endpoint: mean survival time, higher = longer survival
How it was run: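 Transplanted-tumor mice were given test agent; controls received vehicle only. Survival readings from the two groups were divided (treated over control).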

[1] = dose: 100.0 mg/kg/injection, schedule: Q01DX001 (ip), vehicle: saline
[2] = dose: 200.0 mg/kg/injection, schedule: Q01DX001 (ip), vehicle: saline
[3] = dose: 400.0 mg/kg/injection, schedule: Q01DX001 (ip), vehicle: saline
[4] = dose: 100.0 mg/kg/injection, schedule: Q04DX003 (ip), vehicle: saline
[5] = dose: 200.0 mg/kg/injection, schedule: Q04DX003 (ip), vehicle: saline
[6] = dose: 400.0 mg/kg/injection, schedule: Q04DX003 (ip), vehicle: saline
[7] = dose: 100.0 mg/kg/injection, schedule: Q04DX003 (ip), vehicle: Klucel (hydroxypropylcellulose) (HPC)
[8] = dose: 200.0 mg/kg/injection, schedule: Q04DX003 (ip), vehicle: Klucel (hydroxypropylcellulose) (HPC)
[9] = dose: 400.0 mg/kg/injection, schedule: Q04DX003 (ip), vehicle: Klucel (hydroxypropylcellulose) (HPC)
[10] = dose: 100.0 mg/kg/injection, schedule: Q04DX003 (ip), vehicle: saline with Tween-80
[11] = dose: 200.0 mg/kg/injection, schedule: Q04DX003 (ip), vehicle: saline with Tween-80
[12] = dose: 400.0 mg/kg/injection, schedule: Q04DX003 (ip), vehicle: saline with Tween-80
[13] = dose: 100.0 mg/kg/injection, schedule: Q01DX001 (ip), vehicle: carboxymethylcellulose (CMC)
[14] = dose: 100.0 mg/kg/injection, schedule: Q04DX002 (ip), vehicle: Klucel (hydroxypropylcellulose) (HPC)
[15] = dose: 200.0 mg/kg/injection, schedule: Q01DX001 (ip), vehicle: carboxymethylcellulose (CMC)
[16] = dose: 200.0 mg/kg/injection, schedule: Q04DX002 (ip), vehicle: Klucel (hydroxypropylcellulose) (HPC)
[17] = dose: 400.0 mg/kg/injection, schedule: Q01DX001 (ip), vehicle: carboxymethylcellulose (CMC)
[18] = dose: 400.0 mg/kg/injection, schedule: Q04DX002 (ip), vehicle: Klucel (hydroxypropylcellulose) (HPC)
[19] = dose: 100.0 mg/kg/injection, schedule: Q01DX001 (ip), vehicle: Klucel (hydroxypropylcellulose) (HPC)
[20] = dose: 200.0 mg/kg/injection, schedule: Q01DX001 (ip), vehicle: Klucel (hydroxypropylcellulose) (HPC)
[21] = dose: 400.0 mg/kg/injection, schedule: Q01DX001 (ip), vehicle: Klucel (hydroxypropylcellulose) (HPC)

Measured: T/C

O=C(/C=C\c1ccc(Cl)cc1)OCCCCOC(=O)/C=C/c1ccc(Cl)cc1
inactive: dose: 50.0 mg/kg/injection, schedule: Q01DX001 (ip), vehicle: saline 96 % of control | [1] 93 % of control | [2] 93 % of control | [3] 93 % of control

CCOC(=O)C1(C(=O)OCC)COC(C)(C)OC1
inactive: [4] 103 % of control | [5] 118 % of control | [6] 106 % of control

OC(CNc1ccc(Cl)cc1)CN1CCCC1 (centres undefined)
inactive: dose: 75.0 mg/kg/injection, schedule: Q04DX003 (ip), vehicle: saline 101 % of control

CC(O)C(O)C(=O)O (centres undefined)
inactive: dose: 25.0 mg/kg/injection, schedule: Q01DX009 (ip), vehicle: saline 95 % of control | dose: 50.0 mg/kg/injection, schedule: Q01DX009 (ip), vehicle: saline 90 % of control | [1] 96 % of control | dose: 100.0 mg/kg/injection, schedule: Q01DX009 (ip), vehicle: saline 95 % of control | [4] 108 % of control | [2] 102 % of control | [5] 101 % of control | [3] 96 % of control | [6] 94 % of control

O=C(NCCCl)Nc1ccc2c(c1)CCC2
inactive: [7] 94 % of control and 107 % of control | [8] 103 % of control and 90 % of control | [9] 92 % of control

C[N+](C)([O-])CCC=C1c2ccccc2CCc2ccccc21
inactive: dose: 12.5 mg/kg/injection, schedule: Q04DX003 (ip), vehicle: saline 103 % of control | dose: 25.0 mg/kg/injection, schedule: Q04DX003 (ip), vehicle: saline 106 % of control | dose: 50.0 mg/kg/injection, schedule: Q04DX003 (ip), vehicle: saline 103 % of control | [4] 103 % of control | [5] 97 % of control

CCOc1ccc(C(=O)C(C)CN2CCN(C)CC2)cc1 (centres undefined)
inactive: [1] 98 % of control

CN1C(=O)CC(c2ccc(N3C(=O)C=CC3=O)cc2)C1=O (centres undefined)
inactive: dose: 25.0 mg/kg/injection, schedule: Q04DX002 (ip), vehicle: saline with Tween-80 102 % of control

CC1CCC=C2C(=O)C3OC(C)(C)C(C3O)C21C (centres undefined)
inactive: dose: 100.0 mg/kg/injection, schedule: Q01DX009 (ip), vehicle: saline with Tween-80 96 % of control | [10] 97 % of control | dose: 200.0 mg/kg/injection, schedule: Q01DX009 (ip), vehicle: saline with Tween-80 91 % of control | [11] 103 % of control | dose: 400.0 mg/kg/injection, schedule: Q01DX009 (ip), vehicle: saline with Tween-80 93 % of control | [12] 90 % of control

CSc1ccc(OC(=O)Nc2ccc(Cl)cc2)cc1C
inactive: [13] 89 % of control | dose: 100.0 mg/kg/injection, schedule: Q01DX009 (ip), vehicle: carboxymethylcellulose (CMC) 97 % of control and 100 % of control | [14] 103 % of control | dose: 100.0 mg/kg/injection, schedule: Q04DX002 (ip), vehicle: carboxymethylcellulose (CMC) 106 % of control and 108 % of control | [15] 102 % of control | dose: 200.0 mg/kg/injection, schedule: Q01DX009 (ip), vehicle: carboxymethylcellulose (CMC) 93 % of control and 97 % of control | [16] 98 % of control | dose: 200.0 mg/kg/injection, schedule: Q04DX002 (ip), vehicle: carboxymethylcellulose (CMC) 94 % of control and 108 % of control | [17] 93 % of control | [18] 92 % of control | dose: 400.0 mg/kg/injection, schedule: Q04DX002 (ip), vehicle: carboxymethylcellulose (CMC) 95 % of control and 104 % of control

CCCCCC/C=C\[N+](=O)[O-]
inactive: dose: 50.0 mg/kg/injection, schedule: Q01DX001 (ip), vehicle: saline with Tween-80 109 % of control

NCC(=O)NC(CSSCC(NC(=O)CN)C(=O)O)C(=O)O (stereo not drawn) (I: H-Gly-Cys-OH / II: H-Gly-Cys-OH; disulfide I:2-II:2; configuration not given here)
inactive: dose: 75.0 mg/kg/injection, schedule: Q01DX001 (ip), vehicle: saline 99 % of control | dose: 150.0 mg/kg/injection, schedule: Q01DX001 (ip), vehicle: saline 102 % of control | dose: 300.0 mg/kg/injection, schedule: Q01DX001 (ip), vehicle: saline 100 % of control

Sc1ccccc1
inactive: [10] 92 % of control | [11] 99 % of control | [12] 94 % of control

ClCCOCCOc1ccc(Cl)cc1
inactive: dose: 100.0 mg/kg/injection, schedule: Q04DX003 (ip), vehicle: acetone 98 % of control | dose: 200.0 mg/kg/injection, schedule: Q04DX003 (ip), vehicle: acetone 98 % of control | dose: 400.0 mg/kg/injection, schedule: Q04DX003 (ip), vehicle: acetone 91 % of control

Fc1ccc(N2CCNCC2)cc1
inactive: dose: 12.5 mg/kg/injection, schedule: Q01DX009 (ip), vehicle: saline with Tween-80 104 % of control | dose: 25.0 mg/kg/injection, schedule: Q01DX009 (ip), vehicle: saline with Tween-80 104 % of control | dose: 50.0 mg/kg/injection, schedule: Q01DX009 (ip), vehicle: saline with Tween-80 107 % of control

CCCCCCC(C1CCCCC1)C1CCCCC1
inactive: [13] 86 % of control | [15] 102 % of control | [17] 91 % of control

CC(=O)NCCCOc1ccc([N+](=O)[O-])cc1
inactive: [7] 101 % of control | [8] 91 % of control | [9] 92 % of control

CSc1nc2ncncc2c(=O)[nH]1
inactive: [19] 96 % of control | dose: 100.0 mg/kg/injection, schedule: Q01DX009 (ip), vehicle: Klucel (hydroxypropylcellulose) (HPC) 98 % of control | [20] 100 % of control | dose: 200.0 mg/kg/injection, schedule: Q01DX009 (ip), vehicle: Klucel (hydroxypropylcellulose) (HPC) 102 % of control | [21] 101 % of control | dose: 400.0 mg/kg/injection, schedule: Q01DX009 (ip), vehicle: Klucel (hydroxypropylcellulose) (HPC) 95 % of control

COC(=O)C1=CNC=C(C(=O)OC)C1c1ccc(C)cc1
inactive: [10] 95 % of control | [11] 93 % of control | [12] 91 % of control

CN1CCC(OC(c2ccccc2)c2ccccc2)CC1
inactive: dose: 20.0 mg/kg/injection, schedule: Q01DX009 (ip), vehicle: saline 107 % of control | dose: 20.0 mg/kg/injection, schedule: Q04DX003 (ip), vehicle: saline 108 % of control | dose: 40.0 mg/kg/injection, schedule: Q01DX009 (ip), vehicle: saline 113 % of control | dose: 40.0 mg/kg/injection, schedule: Q04DX003 (ip), vehicle: saline 105 % of control | dose: 80.0 mg/kg/injection, schedule: Q04DX003 (ip), vehicle: saline 95 % of control

O=C(O)/C=C/c1nc2ccccc2nc1-c1ccccc1
inactive: [14] 101 % of control | [16] 113 % of control | [18] 101 % of control

CCOC(=O)c1ncc(Cl)cc1N
inactive: [19] 106 % of control | [20] 108 % of control

COP(=O)(C(OC(=O)C(C)(C)C)=C(C)C)N(C)C (centres undefined)
inactive: [10] 97 % of control | [11] 96 % of control | [12] 96 % of control

CC(C)NNC(=O)c1ccccc1
inactive: dose: 25.0 mg/kg/injection, schedule: Q04DX002 (ip), vehicle: saline 109 % of control | dose: 50.0 mg/kg/injection, schedule: Q04DX002 (ip), vehicle: saline 120 % of control | dose: 100.0 mg/kg/injection, schedule: Q04DX002 (ip), vehicle: saline 109 % of control

c1ccc(CC[n+]2ccccc2)cc1
inactive: dose: 10.0 mg/kg/injection, schedule: Q01DX001 (ip), vehicle: saline 106 % of control | dose: 20.0 mg/kg/injection, schedule: Q01DX001 (ip), vehicle: saline 94 % of control | dose: 40.0 mg/kg/injection, schedule: Q01DX001 (ip), vehicle: saline 95 % of control

O=C(C(CO)C(CO)C(=O)N1Cc2cc3ccccc3nc2C1)N1Cc2cc3ccccc3nc2C1 (centres undefined)
inactive: [19] 103 % of control | [20] 95 % of control | [21] 92 % of control
